# “And” between values parts separate entries of the source, which are not always exact repeats. Identical values can stand only once. Records with an inconclusive call do not appear.
# System: BDF1 mice, s.c. Lewis lung carcinoma, T/C %
# Assay: NCI In Vivo Anticancer Drug Screen. Data for tumor model Lewis Lung Carcinoma (subcutaneous) in B6D2F1 (BDF1) mice
# In short: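 Transplanted tumors grown in mice; compound vs vehicle dosing; endpoint survival or tumor size; ratio T/C.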
# [1] = endpoint: median survival time, dose: 100.0 mg/kg/injection, schedule: Q01DX009 (ip), vehicle: Klucel (hydroxypropylcellulose) (HPC), higher = longer survival
# [2] = endpoint: mean tumor weight, dose: 100.0 mg/kg/injection, schedule: Q01DX011 (ip), vehicle: carboxymethylcellulose (CMC), higher = larger tumour
# [3] = endpoint: mean tumor weight, dose: 200.0 mg/kg/injection, schedule: Q01DX011 (ip), vehicle: carboxymethylcellulose (CMC), higher = larger tumour
# [4] = endpoint: mean tumor weight, dose: 50.0 mg/kg/injection, schedule: Q01DX011 (ip), vehicle: carboxymethylcellulose (CMC), higher = larger tumour
smiles,measurement,setting,value
CC(C)CCC[C@@H](C)[C@H]1CC[C@H]2[C@@H]3CC=C4C[C@@H](O)CC[C@]4(C)[C@H]3CC[C@]12C,T/C,[1],100 % of control
same,T/C,"endpoint: median survival time, dose: 200.0 mg/kg/injection, schedule: Q01DX009 (ip), vehicle: Klucel (hydroxypropylcellulose) (HPC), higher = longer survival",90 % of control
same,T/C,"endpoint: median survival time, dose: 400.0 mg/kg/injection, schedule: Q01DX009 (ip), vehicle: Klucel (hydroxypropylcellulose) (HPC), higher = longer survival",90 % of control
same,T/C,"endpoint: median survival time, dose: 800.0 mg/kg/injection, schedule: Q01DX009 (ip), vehicle: Klucel (hydroxypropylcellulose) (HPC), higher = longer survival",89 % of control
Nc1ccc2nc3ccc(N)cc3[n+](-c3ccccc3)c2c1,T/C,"endpoint: median survival time, dose: 2.0 mg/kg/injection, schedule: Q01DX009 (ip), vehicle: saline, higher = longer survival",88 % of control
CC(C)C1C=C2CCC3C(C)(C(=O)O)CCCC3(C)C2CC1 (stereo unspecified),T/C,[2],89 % of control
same,T/C,[3],38 % of control
CSc1ncc(Br)c(Sc2nc(N)nc3nc[nH]c23)n1,T/C,"endpoint: mean tumor weight, dose: 5.0 mg/kg/injection, schedule: Q01DX011 (ip), vehicle: other, higher = larger tumour",57 % of control
same,T/C,"endpoint: mean tumor weight, dose: 10.0 mg/kg/injection, schedule: Q01DX011 (ip), vehicle: other, higher = larger tumour",100 % of control
same,T/C,"endpoint: mean tumor weight, dose: 20.0 mg/kg/injection, schedule: Q01DX011 (ip), vehicle: other, higher = larger tumour",65 % of control
O=CNCCNC=O,T/C,"endpoint: mean tumor weight, dose: 148.0 mg/kg/injection, schedule: Q01DX011 (ip), vehicle: saline, higher = larger tumour",96 % of control
same,T/C,"endpoint: mean tumor weight, dose: 333.0 mg/kg/injection, schedule: Q01DX011 (ip), vehicle: saline, higher = larger tumour",98 % of control
same,T/C,"endpoint: mean tumor weight, dose: 500.0 mg/kg/injection, schedule: Q01DX011 (ip), vehicle: saline, higher = larger tumour",115 % of control
Nc1nc(SCc2ccccc2Cl)c2[nH]cnc2n1,T/C,"endpoint: mean tumor weight, dose: 3.8 mg/kg/injection, schedule: Q01DX011 (ip), vehicle: other, higher = larger tumour",82 % of control
same,T/C,"endpoint: mean tumor weight, dose: 7.5 mg/kg/injection, schedule: Q01DX011 (ip), vehicle: other, higher = larger tumour",38 % of control
same,T/C,"endpoint: mean tumor weight, dose: 15.0 mg/kg/injection, schedule: Q01DX011 (ip), vehicle: other, higher = larger tumour",99 % of control
same,T/C,"endpoint: mean tumor weight, dose: 60.0 mg/kg/injection, schedule: Q01DX011 (ip), vehicle: other, higher = larger tumour",29 % of control
same,T/C,"endpoint: mean tumor weight, dose: 120.0 mg/kg/injection, schedule: Q01DX011 (ip), vehicle: other, higher = larger tumour",11 % of control
O=C1C=CC2(CCC23C=CC(=O)O3)O1 (stereo unspecified),T/C,"endpoint: mean tumor weight, dose: 13.0 mg/kg/injection, schedule: Q01DX011 (ip), vehicle: saline, higher = larger tumour",102 % of control
same,T/C,"endpoint: mean tumor weight, dose: 30.0 mg/kg/injection, schedule: Q01DX011 (ip), vehicle: saline, higher = larger tumour",85 % of control
same,T/C,"endpoint: mean tumor weight, dose: 45.0 mg/kg/injection, schedule: Q01DX011 (ip), vehicle: saline, higher = larger tumour",80 % of control and 83 % of control
same,T/C,"endpoint: mean tumor weight, dose: 65.0 mg/kg/injection, schedule: Q01DX011 (ip), vehicle: saline, higher = larger tumour",66 % of control
Oc1ccc2ccccc2c1N=Nc1ccccc1,T/C,"endpoint: mean tumor weight, dose: 25.0 mg/kg/injection, schedule: Q01DX011 (ip), vehicle: carboxymethylcellulose (CMC), higher = larger tumour",78 % of control
same,T/C,[4],75 % of control
same,T/C,[2],84 % of control
same,T/C,[3],43 % of control
NC(=S)N/N=C/c1cc(-c2cccc(N)c2)ccn1,T/C,"endpoint: median survival time, dose: 6.25 mg/kg/injection, schedule: Q01DX009 (ip), vehicle: saline with Tween-80, higher = longer survival",106 % of control
same,T/C,"endpoint: median survival time, dose: 12.5 mg/kg/injection, schedule: Q01DX009 (ip), vehicle: saline with Tween-80, higher = longer survival",102 % of control and 106 % of control
same,T/C,"endpoint: median survival time, dose: 25.0 mg/kg/injection, schedule: Q01DX009 (ip), vehicle: saline with Tween-80, higher = longer survival",117 % of control and 119 % of control
same,T/C,"endpoint: median survival time, dose: 50.0 mg/kg/injection, schedule: Q01DX009 (ip), vehicle: saline with Tween-80, higher = longer survival",87 % of control and 123 % of control
CCOc1ccc(Nc2ncnc3nc[nH]c23)cc1CN(CCCl)CCCl,T/C,"endpoint: mean tumor weight, dose: 1.2 mg/kg/injection, schedule: Q01DX011 (ip), vehicle: other, higher = larger tumour",54 % of control
same,T/C,"endpoint: mean tumor weight, dose: 2.3 mg/kg/injection, schedule: Q01DX011 (ip), vehicle: other, higher = larger tumour",46 % of control
O=c1c(O)c(-c2ccc(O)c(O)c2)oc2cc(O)ccc12,T/C,"endpoint: mean tumor weight, dose: 12.5 mg/kg/injection, schedule: Q01DX011 (ip), vehicle: saline, higher = larger tumour",99 % of control
same,T/C,"endpoint: mean tumor weight, dose: 25.0 mg/kg/injection, schedule: Q01DX011 (ip), vehicle: saline, higher = larger tumour",95 % of control
same,T/C,"endpoint: mean tumor weight, dose: 50.0 mg/kg/injection, schedule: Q01DX011 (ip), vehicle: saline, higher = larger tumour",91 % of control
CCCCCCCCCCCCCCCCC(C(=O)O)C(O)(CC(=O)O)C(=O)O (stereo unspecified),T/C,"endpoint: mean tumor weight, dose: 22.0 mg/kg/injection, schedule: Q01DX011 (ip), vehicle: carboxymethylcellulose (CMC), higher = larger tumour",64 % of control
same,T/C,"endpoint: mean tumor weight, dose: 35.0 mg/kg/injection, schedule: Q01DX011 (ip), vehicle: carboxymethylcellulose (CMC), higher = larger tumour",68 % of control
same,T/C,[4],46 % of control
CC(C)CCSc1nc(N)nc2nc[nH]c12,T/C,"endpoint: mean tumor weight, dose: 300.0 mg/kg/injection, schedule: Q01DX011 (ip), vehicle: other, higher = larger tumour",59 % of control
C=C1C(=O)OC2CC(C)C3(O)CCC(C)(CC(OC(=O)C(C)C)C12)O3 (stereo unspecified),T/C,"endpoint: median survival time, dose: 50.0 mg/kg/injection, schedule: Q01DX009 (ip), vehicle: Klucel (hydroxypropylcellulose) (HPC), higher = longer survival",92 % of control
same,T/C,[1],106 % of control
